Results on eleven compounds are retold here after US7247651B2, “2,7-substituted indoles” (Roche Palo Alto LLC, priority 2002, dated 2007).

The test deals with T1, recombinant human 5-HT6 receptor (Homo sapiens, UniProt P50406).
T1 construct: expressed in transfected cells; cell membranes used
Briefly: in vitro radioligand binding, competition for [3H]LSD binding in membranes of HEK293 cells. As to conditions: [3H]LSD (5 nM), HEK293 cell membranes, pH 7.4, 37° C., 60 min. On the procedure: This example illustrates in vitro radioligand binding studies of Compound of Formula I.
The binding activity of compounds of this invention in vitro was determined as follows. Duplicate determinations of ligand affinity are made by competing for binding of [^3H]LSD in cell membranes derived from HEK293 cells stably expressing recombinant human 5-HT6 receptor.
All determinations were made in assay buffer containing 50 mM Tris-HCl, 10 mM MgSO4, 0.5 mM EDTA, 1 mM ascorbic acid, pH 7.4 at 37° C., in a 250 microliter reaction volume. Assay tubes containing [3H] LSD (5 nM), competing ligand, and membrane were incubated in a shaking water bath for 60 min. at 37° C., filtered onto Packard GF-B plates (pre-soaked with 0.3% PEI) using a Packard 96 well cell harvester and washed 3 times in ice cold 50 mM Tris-HCl. Bound [^3H] LSD was determined as radioactive counts per minute using Packard TopCount.
Displacement of [3H]LSD from the binding sites was quantified by fitting concentration-binding data to a 4-parameter logistic equation:
[formula] where Hill is the Hill slope, [ligand] is the concentration of competing radioligand and IC50 is the concentration of radioligand producing half-maximal specific binding of radioligand. The specific binding window is the difference between the Bmax and the basal parameters.
Using the procedures of Example 6, compounds of Formula I were tested and found to be selective 5-HT6 antagonists.

T1 sequence (P50406 whole entry): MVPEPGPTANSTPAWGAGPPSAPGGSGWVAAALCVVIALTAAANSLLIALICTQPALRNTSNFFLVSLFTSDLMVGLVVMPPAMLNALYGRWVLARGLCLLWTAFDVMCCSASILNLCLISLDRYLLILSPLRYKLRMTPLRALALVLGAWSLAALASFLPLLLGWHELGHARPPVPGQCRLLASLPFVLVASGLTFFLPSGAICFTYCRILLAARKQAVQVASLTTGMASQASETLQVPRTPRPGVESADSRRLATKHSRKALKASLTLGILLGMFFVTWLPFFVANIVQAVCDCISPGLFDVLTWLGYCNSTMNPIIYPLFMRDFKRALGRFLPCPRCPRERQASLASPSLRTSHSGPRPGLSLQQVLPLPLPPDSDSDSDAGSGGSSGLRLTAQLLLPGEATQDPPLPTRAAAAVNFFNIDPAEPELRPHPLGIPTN

For orientation: Ki means a measure of affinity in units of concentration, obtained from inhibition or displacement. For `O=S(=O)(c1ccccc1)c1cc2cccc(C3CCNCC3)c2[nH]1` [Compound 6, 2-Benzenesulfonyl-7-piperidin-4-yl-1H-indole], the Ki was 0.631 nM. With `CN1CCN(c2cccc3cc(S(=O)(=O)c4cccc(Cl)c4Cl)[nH]c23)CC1` [Compound 4, 2-(2,3-Dichloro-benzenesulfonyl)-7-(4-methyl-piperazin-1-yl)-1H-indole], the Ki was 0.794 nM.

For the compound `O=S(=O)(c1cccc(Br)c1)c1cc2cccc(N3CCNCC3)c2[nH]1` [Compound 11, 2-(3-Bromo-benzenesulfonyl)-7-piperazin-1-yl-1H-indole], the Ki was 0.501 nM. For `O=S(=O)(c1cc2cccc(N3CCNCC3)c2[nH]1)c1cccc(Cl)c1Cl` [Compound 3, 2-(2,3-Dichloro-benzenesulfonyl)-7-piperazin-1-yl-1H-indole], the Ki was 0.2 nM. As to `O=S(=O)(c1ccccc1)c1cc2cccc(N3CCNCC3)c2[nH]1` [Compound 1, 2-Benzenesulfonyl-7-piperazin-1-yl-1H-indole], the Ki is 0.501 nM.

Take `CN1CCC(c2cccc3cc(S(=O)(=O)c4ccccc4)[nH]c23)CC1` [Compound 7, 2-Benzenesulfonyl-7-(1-methyl-piperidin-4-yl)-1H-indole]: the Ki is 1 nM. In the case of `O=S(=O)(c1cc2cccc(N3CCNCC3)c2[nH]1)c1ccccc1C(F)(F)F` [Compound 9, 7-Piperazin-1-yl-2-(2-trifluoromethyl-benzenesulfonyl)1H-indole], the Ki was 0.316 nM. With `CN1CCN(c2cccc3cc(S(=O)(=O)c4ccccc4)[nH]c23)CC1` [Compound 2, 2-Benzenesulfonyl-7-(4-methyl-piperazin-1-yl)-1H-indole] the figure was 0.794 nM. For `CN1CCN(c2cccc3cc(S(=O)(=O)c4cccc(Br)c4)[nH]c23)CC1` [Compound 10, 2-(3-Bromo-benzenesulfonyl)-7-(4-methyl-piperazin-1-yl)-1H-indole] the value was 0.251 nM; for `CN1CCN(c2cccc3cc(S(=O)(=O)c4ccccc4C(F)(F)F)[nH]c23)CC1` [Compound 8, 7-(4-Methyl-piperazin-1-yl)-2-(2-trifluoromethyl-benzenesulfonyl)-1H-indole], 0.316 nM; for `O=S(=O)(c1cc2cccc(N3CCNCC3)c2[nH]1)c1ccccc1F` [Compound 5, 2-(2-Fluoro-benzenesulfonyl)-7-piperazin-1-yl-1H-indole], 0.501 nM.
